The source of these data is PubChem BioAssay (NCI).

Each structure is given as a SMILES string.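 These data come from cells grown in 96-well plates and exposed to compound for 48 hours at five concentrations. GI50 is the concentration that inhibits growth by half. TGI is the concentration that stops growth completely.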

Common to all, as to experiment: NCI-60 cell line screen, 48 h
Assay [1] relates to BT-549 breast.
Assay [2] deals with COLO 205 colon.
Assay [3] relates to HS 578T breast.
Assay [4] relates to MALME-3M melanoma.
The subject of assay [5] is NCI-H460 lung.
The test system of assay [6] is NCI/ADR-RES ovarian.
Assay [7] deals with OVCAR-5 ovarian.
The subject of assay [8] is SNB-75 CNS.
The subject of assay [9] is SR leukemia.
Assay [10] deals with NCI-H226 lung.

Regarding `O=P(Oc1ccccc1)(Oc1ccccc1)C(O)c1ccccc1` (stereo not drawn), the GI50 in assay [1] was more than 100 µM; in [2] it was 35 µM; in [3] it was 45.9 µM; in [4], 4.65 µM; in assay [5] it was more than 100 µM; in [6] it was more than 100 µM. In addition, the GI50 in [7] is more than 100 µM; in [8], 34.4 µM; in assay [9], 62.3 µM. In addition, the TGI in assay [1], in assay [2], in [3], in [4], in assay [5] and in [6] was more than 100 µM each time. In addition, the TGI in assay [7], in assay [8] and in assay [9] was more than 100 µM in each case.
On to `COC(=O)C/C(C)=C/[C@@H](O)[C@H]1O[C@@H]2CC/C(Cl)=C/C/C=C(/C)[C@H](OC(C)=O)CC(=O)O[C@@H]1C2`, for which the GI50 in assay [1] was 1.89 µM; in assay [2], 1.72 µM; in [3], 0.546 µM; in assay [10] it was 4.76 µM; in assay [5], 0.367 µM; in assay [6], 9.91 µM. Also, the GI50 in assay [7] was 8.17 µM; in [8], 1.16 µM; in [9], 0.813 µM. The TGI in assay [1] is 7.73 µM; in assay [2], 7.51 µM; in [3], 2.14 µM; in assay [10], 11.8 µM; in [5], 13.8 µM; in assay [6] it was more than 25 µM. Also, the TGI in [7] was more than 25 µM; in [8] it was 6.14 µM; in [9], 3.19 µM.
Take `CCOC(=O)c1sc2ncn(Cc3cccc(Cl)c3)c(=O)c2c1C`: the GI50 in [1] was 17.2 µM; in assay [2], 20.7 µM; in assay [3] it was 17.5 µM; in [10] it was 12.9 µM; in assay [5], 18.7 µM; in assay [6] it was 7.78 µM. Further, the GI50 in assay [7] was 17.4 µM; in assay [8], 16.4 µM; in [9], 3.33 µM. Besides, the TGI in assay [1] is 30.9 µM; in assay [2], 36.6 µM; in assay [3], 31.3 µM; in assay [10], 25.8 µM; in [5] it was 39.7 µM; in [6], 20.7 µM. Moreover, the TGI was determined as 31.2 µM in assay [7], 29.9 µM in assay [8] and 12.7 µM in [9].
On to `C=C(CN1CCc2ccccc2C1)c1ccc(/C=C/C(=O)Nc2ccccc2N)cc1`, for which the GI50 is 10.3 µM in assay [1]; 32.2 µM in [2]; 17.1 µM in assay [3]; 0.309 µM in [4]; 2.64 µM in [10]; 3.18 µM in assay [5]. Besides, the GI50 in assay [6] is 4.27 µM; in assay [7] it was 12.8 µM. Besides, the TGI in assay [1] is more than 100 µM; in [2] it was more than 100 µM; in assay [3], more than 100 µM; in assay [4], 8.04 µM; in [10] it was 25.4 µM; in assay [5], 38.1 µM. Moreover, the TGI in assay [6] and in [7] was more than 100 µM each time.
`CC1=C(C(=O)Nc2ccc(F)c(Cl)c2)C(c2cccc(O)c2)NC(=S)N1` (stereo not drawn): the GI50 in assay [1] is 12.1 µM; in [2] it was 22.2 µM; in assay [3] it was 13.7 µM; in [5], 22.8 µM; in [6], more than 50 µM; in [7], 17 µM. Further, the GI50 is 14.4 µM in assay [8] and 16.4 µM in [9]. Moreover, the TGI in assay [1] is 36.8 µM; in [2], more than 50 µM; in assay [3], 47 µM; in [5] it was more than 50 µM; in assay [6] it was more than 50 µM; in assay [7], more than 50 µM. Also, the TGI was 41.3 µM in assay [8] and more than 50 µM in assay [9].
Turning to `COc1ccc(/C=C\c2cc(OC)c(OC)c(OC)c2)cc1NC(=O)[C@@H](N)CO`, the GI50 was less than 0.0139 µM in assay [1]; less than 0.01 µM in assay [2]; 0.0309 µM in assay [3]; 0.0287 µM in [10]; 0.0321 µM in assay [5]; 0.0205 µM in assay [6]. The GI50 was less than 0.023 µM in assay [7], less than 0.0128 µM in [8] and less than 0.015 µM in assay [9]. Besides, the TGI is 0.085 µM in [1]; 0.0153 µM in assay [2]; more than 100 µM in assay [3]; more than 100 µM in [10]; more than 100 µM in [5]; 0.245 µM in assay [6]. Moreover, the TGI in [7] was more than 100 µM; in assay [8], more than 66.7 µM; in assay [9], more than 100 µM.
As to `O=C1CC2(CCCc3sccc32)C(=O)N1` (stereo not drawn), the TGI in assay [2], in assay [3], in assay [4], in [10], in assay [5] and in assay [6] was more than 100 µM throughout. Further, the TGI in [7] and in [8] was more than 100 µM in each case.
For `O=C(CCl)Nc1ccccc1SCc1cc(Cl)cc2c1OCOC2`, the GI50 is 3.52 µM in [1]; 17.3 µM in assay [2]; 6.25 µM in assay [3]; 2.3 µM in assay [4]; 11.2 µM in [10]; 18.4 µM in assay [5]. The GI50 in [6] is 17.5 µM; in assay [7], 13.5 µM; in assay [8], 8.55 µM. Besides, the TGI in assay [1] stood at 11.5 µM; in assay [2] it was 35.5 µM; in assay [3] it was 38.9 µM; in assay [4] it was 5.96 µM; in [10], 35.6 µM; in assay [5], 38.1 µM. Further, the TGI in [6] came out at 84.8 µM; in [7], 27.7 µM; in assay [8], 23.3 µM.
Take `O=C(Nc1cccc(C2=NCCN2)c1)c1ccc(OCCCOc2ccc(C(=O)Nc3cccc(C4=NCCN4)c3)cc2)cc1`: the GI50 is 2.55 µM in assay [3], 46.2 µM in assay [6], 3.51 µM in [7] and 1.96 µM in assay [9]. Also, the TGI in assay [3] was 6.6 µM; in assay [6], more than 100 µM; in [7], 20.4 µM; in [9] it was more than 100 µM.
